Data reported in patent publication US20130018062A1, “Pain therapy with metabolism blocked antifolates” (priority 2011, published 2013).

What was measured:
[1] = test system: patients with Rheumatoid Arthritis; experiment: Pain assessment by VAS scale in patients treated with M-Trex (Example-1); assay type: in vivo, human
Excerpt: Of special importance was the novel observation of the ability of M-Trex to substantially reduce Pain in human subjects who were suffering from inflammation caused by autoimmune response. [O. Castaneda and M. G. Nair. Controlled trial of methotrexate versus CH-1504 in the treatment of Rheumatoid Arthritis. The J. Rheumatology. 33, 862-64, 2006.] […] Another unique observation with M-Trex was its ability to shrink human tumor xenografts in immuno-compromised mice. The ability of metabolism blocked antifolate M-Trex to shrink rapidly proliferating human tissues is representative and results in Pain reduction secondary to such proliferation. [EXAMPLE-1]** ** Pain assessment was made using the VAS scale every four weeks. Patients were treated with a daily oral dose of 7.5 mg/day of M-Trex during the duration of measurements. […] Pain as assessed by VAS was reduced from a scale of 7.2 to 1.8.
There are three general accepted methods for the evaluation of Pain in patients suffering from a number of diseases. They are Visual Analog Scale (VAS); Numeric rating Scale (NRS) and Verbal Categorical Rating Scale […]. Of these three assessment methods VAS is considered to be most reliable in a majority of cases to evaluate and quantify the magnitude of the perception of Pain. […]

[2] = Laboratory values (toxicity) of Rheumatoid Arthritis patients on M-Trex; assay type: in vivo, human; settings: M-Trex 7.5 mg per day; for CREATININE / GLUCOSE / SGOT / ALK. PHOSPHAT / SGTP / HEMOGLOB: RA patients; for ALK. PHOSPHAT / SGTP: in U/L (unit assumed); for HEMOGLOB: in g/dL (unit assumed)
C-Reactive Protein (CRP) = experiment: Plasma CRP levels of patients on therapy with M-Trex for Rheumatoid Arthritis (Example-2); assay type: in vivo, human; settings: arthritic patients taking M-Trex, clinical study by Castaneda and Nair
Excerpt: Coronary Heart Disease (CHD), Cardio-vascular diseases (CVD) and Stroke are of the same generic species by virtue of Inflammation being the common underlying cause of their occurrence. In fact an article by the American Heart Association entitled “Inflammation, Heart Disease and Stroke. The role of C-Reactive Protein” stressed that markers of Inflammation are more accurate and reliable predictive factors than total cholesterol levels in humans. [www.americanheart.org/presenter.jhtml?presenter=4648]. The most accurate predictive factor for the incidence of CHD, CVD and stroke is elevated levels of C-Reactive Protein (CRP).

[3] = test system: Human HCT-8 Colon Xenograft; experiment: Antitumor activity in nude mice bearing human HCT-8 colon xenograft (Example-4); assay type: in vivo; settings: i.v. push daily × 5 at maximum tolerated dose (M-Trex 4.0, MTX 1.0 mg/kg/day)
Excerpt: There are three general accepted methods for the evaluation of Pain in patients suffering from a number of diseases. They are Visual Analog Scale (VAS); Numeric rating Scale (NRS) and Verbal Categorical Rating Scale […]. Of these three assessment methods VAS is considered to be most reliable in a majority of cases to evaluate and quantify the magnitude of the perception of Pain. Clinical trials conducted by Castaneda and Nair used VAS to assess pain intensity in RA patients receiving 10-DAAM in one trial [G. Alarcon, O. Castaneda, W. J. Koopman, C. L. Krumdieck, and M. G. Nair. U.S. Pat. No. 5,030,634 (1991)] and M-Trex (CH-1504) in another trial conducted separately. Almost all cases of cancer Pain is due to tissue inflammation, tissue compression and tissue damage secondary to rapid proliferation of cells. Therefore any therapeutic intervention that shrinks proliferating tissues can bring about significant reduction in Pain. Shown below is the efficacy of M-Trex in shrinking human colon cancer transplanted and growing in nude mice.

[4] = Toxicity (maximum tolerated dose, weight loss) in nude mice bearing HCT-8 xenograft; assay type: in vivo; settings: i.v. push daily × 5 in nude mice

Compound: C=C(CC(NC(=O)c1ccc(CCc2ccc3nc(N)nc(N)c3c2)cc1)C(=O)O)C(=O)O (centres unmarked) [M-Trex, 4′-methylene-5,8-10-trideazaaminopterin]
- Pain as assessed by VAS ([1]; starting value from which pain was reduced, Rheumatoid Arthritis patients): 7.2
- Pain as assessed by VAS ([1]; value reached on daily oral dose of 7.5 mg/day of M-Trex, assessed every four weeks): 1.8
- CREATININE ([2]; VISIT 2): 0.79 mg/dL
- GLUCOSE ([2]; VISIT 2): 83.8 mg/dL
- SGOT ([2]; VISIT 2): 14.6 U/L
- ALK. PHOSPHAT ([2]; VISIT 2): 107.75
- SGTP ([2]; VISIT 2): 17.75
- HEMOGLOB ([2]; VISIT 2): 11.77
- CREATININE ([2]; VISIT 3): 0.95 mg/dL
- GLUCOSE ([2]; VISIT 3): 95 mg/dL
- SGOT ([2]; VISIT 3): 16 U/L
- ALK. PHOSPHAT ([2]; VISIT 3): 86
- SGTP ([2]; VISIT 3): 17
- HEMOGLOB ([2]; VISIT 3): 12.43
- CREATININE ([2]; VISIT 4): 0.85 mg/dL
- GLUCOSE ([2]; VISIT 4): 87.5 mg/dL
- SGOT ([2]; VISIT 4): 16 U/L
- ALK. PHOSPHAT ([2]; VISIT 4): 89.3
- SGTP ([2]; VISIT 4): 25
- HEMOGLOB ([2]; VISIT 4): 12.18
- CREATININE ([2]; VISIT 5): 0.85 mg/dL
- GLUCOSE ([2]; VISIT 5): 88.1 mg/dL
- SGOT ([2]; VISIT 5): 17.3 U/L
- ALK. PHOSPHAT ([2]; VISIT 5): 87.1
- SGTP ([2]; VISIT 5): 20
- HEMOGLOB ([2]; VISIT 5): 12.26
- CREATININE ([2]; VISIT 6): 0.92 mg/dL
- GLUCOSE ([2]; VISIT 6): 92.4 mg/dL
- SGOT ([2]; VISIT 6): 14.9 U/L
- ALK. PHOSPHAT ([2]; VISIT 6): 85.42
- SGTP ([2]; VISIT 6): 18.21
- HEMOGLOB ([2]; VISIT 6): 12.56
- CREATININE ([2]; VISIT 7): 0.84 mg/dL
- GLUCOSE ([2]; VISIT 7): 90.3 mg/dL
- SGOT ([2]; VISIT 7): 15.2 U/L
- ALK. PHOSPHAT ([2]; VISIT 7): 86.5
- SGTP ([2]; VISIT 7): 18
- HEMOGLOB ([2]; VISIT 7): 12.48
- Toxicity according to laboratory values ([2]; patients with Rheumatoid Arthritis): not associated with any measurable toxicity
- Change of CRP levels (in words) (C-Reactive Protein (CRP)): significant and consistent reduction
- MTGI, Maximum Tumor Growth Inhibition (% of control) ([3]; nude mice, HCT-8 xenograft): 91.4 ± 2.2%
- Tumor doubling time, treated/control (%) ([3]; nude mice, HCT-8 xenograft): 623.08%
- TD, Tumor Doubling Time ([3]; control 2.6 ± 0.8 days): 16.2 ± 3.2 days
- Maximum Tolerated dose [4]: M-Trex (4.0 mg/kg/day)
